Like-named read-outs stand apart in the source and are kept apart here.
Tests used:
[1] = system: D. melanogaster w^1118 females
Method: (§1) All experiments were conducted with D. melanogaster w^1118 females (Bloomington Drosophila Stock Center) kept at consistent conditions at 25° C., 55% humidity, and ambient light. […] Flies were transferred to new vials every other day. […] These solutions were prepared fresh before each batch of media preparation and were added to warmed, liquefied standard fly food (prepared with agar, cornmeal, sucrose and yeast) and mixed thoroughly prior to pouring into vials. Food was prepared fresh at least monthly.
Flies were followed according to the same protocol, counting dead flies daily until all were dead. Survival data were plotted using Kaplan Meier survival analysis^17, mean and median survival times were calculated, and the differences between the survival curves were tested using log rank statistics in SPSS.

[2] = in vivo; cited from earlier work
[3] = system: D. melanogaster w^1118 females; conditions: in vivo
Method: as §1

CG14691 = format: in vivo, D. melanogaster; conditions: 5 mM paraquat for six days, compared to untreated flies
Method: as §1

[4] = 5 mM paraquat, nicotine 0 mg/ml

| SMILES | Nicotine restored survival of paraquat-treated flies ([1]; in vivo) | effect on survival ([1]; in vivo) | improvement of survival of paraquat-treated flies ([1]; in vivo) | Oral bioavailability [2] | effect on survival [3] | shortening of lifespan ([1]; 5 mM paraquat vs untreated flies) | Mean survival Days ± SE [1, 4] | Median survival Days ± SE [1, 4] | Reduction of median survival by paraquat ([1]; in vivo) | rise in CG14691 expression (CG14691) |
| --- | --- | --- | --- | --- | --- | --- | --- | --- | --- | --- |
| CN1CCC[C@H]1c1cccnc1 [nicotine, 1-methyl-2-(3-pyridyl)pyrrolidone] | ≤ 25% | beneficial effect | up to 25% | about 30% | did not have a notable effect on survival |  |  |  |  |  |
| C[n+]1ccc(-c2cc[n+](C)cc2)cc1 [paraquat, Methyl viologen dichloride hydrate] |  |  |  |  |  | 63% | 14.0 ± 0.4 days | 16 ± 0.5 days | Paraquat reduced median survival by 63% | 8% |

From patent US20130324503A1, “Method of identifying and treating a person having a predisposition to or afflicted with Parkinson disease” (Health Research Inc., priority 2010, published 2013)
